# Where two headings read alike, the source gives them in different places.
# Legend:
# M3 muscarinic receptor = M3 muscarinic receptor (Homo sapiens, UniProt P20309); assay: Muscarinic M3 binding assay; design: purchased PerkinElmer, Inc., Wellesley, Mass; host or cells: CHO cells
# Estrogen = assay: Table 12 panel: Estrogen; assay type: binding; details: 1.0E−6, average N=2
# From the text: (§1) The percentage inhibition (average; N=2) for these receptors is shown below in Table 12.
# (§2) Values in Table 12 are expressed as percentage inhibition of specific binding, and these values represent the average of replicate tubes at each of the concentrations tested.
# adult male Wistar rats = assay: SCORE-2000 sleep-wakefulness, locomotor activity and body temperature monitoring; assay type: in vivo, rat
# Testosterone (cytosolic) = Testosterone (cytosolic) (Homo sapiens, UniProt P10275); assay: Table 12 panel: Testosterone; details: 1.0E−6, average N=2, read-out: percentage inhibition of specific binding
# Sequence of Testosterone (cytosolic) (P10275 whole entry): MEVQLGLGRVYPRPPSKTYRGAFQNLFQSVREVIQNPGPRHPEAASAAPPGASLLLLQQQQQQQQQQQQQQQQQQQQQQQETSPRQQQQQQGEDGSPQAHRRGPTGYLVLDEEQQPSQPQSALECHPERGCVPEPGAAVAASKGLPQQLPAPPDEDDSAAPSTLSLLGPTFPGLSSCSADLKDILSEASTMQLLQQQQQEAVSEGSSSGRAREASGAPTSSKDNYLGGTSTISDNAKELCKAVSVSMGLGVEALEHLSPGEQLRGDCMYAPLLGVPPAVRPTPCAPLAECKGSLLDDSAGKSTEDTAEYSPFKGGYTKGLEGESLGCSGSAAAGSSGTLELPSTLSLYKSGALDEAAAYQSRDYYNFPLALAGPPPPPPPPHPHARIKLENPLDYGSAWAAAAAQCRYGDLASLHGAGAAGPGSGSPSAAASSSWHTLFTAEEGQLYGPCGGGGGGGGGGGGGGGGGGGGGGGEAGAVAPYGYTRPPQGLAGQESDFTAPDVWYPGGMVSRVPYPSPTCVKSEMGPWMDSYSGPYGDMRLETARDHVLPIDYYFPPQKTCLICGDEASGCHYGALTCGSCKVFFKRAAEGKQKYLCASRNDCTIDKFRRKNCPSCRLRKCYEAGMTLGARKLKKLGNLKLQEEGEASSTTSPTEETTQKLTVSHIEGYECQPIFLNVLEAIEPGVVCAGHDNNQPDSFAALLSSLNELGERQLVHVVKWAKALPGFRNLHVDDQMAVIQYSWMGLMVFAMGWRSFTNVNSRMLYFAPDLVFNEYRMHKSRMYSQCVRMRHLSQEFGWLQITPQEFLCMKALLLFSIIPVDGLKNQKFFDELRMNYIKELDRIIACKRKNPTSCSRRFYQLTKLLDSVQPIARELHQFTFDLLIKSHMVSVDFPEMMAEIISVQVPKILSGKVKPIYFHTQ
# From the text: as §1, §2
# M1 muscarinic receptor = target: T1, M1 muscarinic receptor (Homo sapiens, UniProt P11229); assay: Muscarinic M1 binding assay ([3H]-scopolamine, N-methyl chloride); design: purchased PerkinElmer, Inc., Wellesley, Mass; host or cells: CHO cells
# T1 sequence (P11229 1-460): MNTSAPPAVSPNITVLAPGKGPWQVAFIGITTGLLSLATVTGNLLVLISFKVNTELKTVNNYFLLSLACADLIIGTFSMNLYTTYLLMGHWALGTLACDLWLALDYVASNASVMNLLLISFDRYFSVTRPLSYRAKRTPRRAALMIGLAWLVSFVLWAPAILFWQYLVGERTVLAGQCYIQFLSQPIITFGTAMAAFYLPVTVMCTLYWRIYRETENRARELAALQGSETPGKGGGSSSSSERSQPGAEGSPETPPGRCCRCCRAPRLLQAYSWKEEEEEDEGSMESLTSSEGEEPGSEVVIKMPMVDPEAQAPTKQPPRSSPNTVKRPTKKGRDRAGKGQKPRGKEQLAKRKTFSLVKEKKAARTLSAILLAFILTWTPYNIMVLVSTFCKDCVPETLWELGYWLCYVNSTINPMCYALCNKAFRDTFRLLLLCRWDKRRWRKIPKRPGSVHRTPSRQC
# [1] = target: Glutamate, NMDA, Glycine (Stry-insens Site) (Homo sapiens, UniProt Q05586); assay: Table 12 panel: Glutamate, NMDA, Glycine; details: 1.0E−6, average N=2, read-out: percentage inhibition of specific binding
# From the text: as §1, §2
# M2 muscarinic receptor = target: T2, M2 muscarinic receptor (Homo sapiens, UniProt P08172); assay: Muscarinic M2 binding assay; design: purchased PerkinElmer, Inc., Wellesley, Mass; host or cells: CHO cells
# T2 sequence (P08172 1-466): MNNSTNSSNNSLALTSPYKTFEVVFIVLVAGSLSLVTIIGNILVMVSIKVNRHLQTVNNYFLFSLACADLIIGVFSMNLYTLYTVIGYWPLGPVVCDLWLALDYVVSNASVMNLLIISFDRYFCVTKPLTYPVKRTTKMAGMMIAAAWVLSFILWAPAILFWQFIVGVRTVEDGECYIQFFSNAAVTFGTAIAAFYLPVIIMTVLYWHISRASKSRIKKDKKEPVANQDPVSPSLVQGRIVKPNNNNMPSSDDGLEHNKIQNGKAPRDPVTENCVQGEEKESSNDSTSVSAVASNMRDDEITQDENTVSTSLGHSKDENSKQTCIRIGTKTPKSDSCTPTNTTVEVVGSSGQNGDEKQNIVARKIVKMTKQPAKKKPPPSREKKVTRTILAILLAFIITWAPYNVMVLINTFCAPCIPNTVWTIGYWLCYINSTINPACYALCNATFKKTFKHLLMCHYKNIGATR
# Dopamine Transporter = Dopamine Transporter (Homo sapiens, UniProt Q01959); assay: Table 12 panel: Dopamine Transporter; details: 1.0E−6, average N=2, read-out: percentage inhibition of specific binding
# Sequence of Dopamine Transporter (Q01959 whole entry): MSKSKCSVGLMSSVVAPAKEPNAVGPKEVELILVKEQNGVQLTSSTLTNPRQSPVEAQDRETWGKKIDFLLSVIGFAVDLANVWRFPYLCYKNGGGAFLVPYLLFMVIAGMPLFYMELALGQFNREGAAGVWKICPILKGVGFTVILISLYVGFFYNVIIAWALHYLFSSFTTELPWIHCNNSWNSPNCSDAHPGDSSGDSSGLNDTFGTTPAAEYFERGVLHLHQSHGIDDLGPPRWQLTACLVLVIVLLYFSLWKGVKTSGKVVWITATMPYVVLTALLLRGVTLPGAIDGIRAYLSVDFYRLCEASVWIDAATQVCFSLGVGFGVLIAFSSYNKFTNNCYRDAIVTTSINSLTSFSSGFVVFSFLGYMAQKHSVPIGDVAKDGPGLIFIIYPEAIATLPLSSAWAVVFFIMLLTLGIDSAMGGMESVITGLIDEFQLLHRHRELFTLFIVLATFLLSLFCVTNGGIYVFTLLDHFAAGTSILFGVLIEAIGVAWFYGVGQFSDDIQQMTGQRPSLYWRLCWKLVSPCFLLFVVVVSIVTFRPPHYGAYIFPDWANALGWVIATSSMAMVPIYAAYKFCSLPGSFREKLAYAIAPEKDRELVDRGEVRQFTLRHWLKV
# From the text: as §1, §2
# H1 histamine receptor = target: T3, H1 histamine receptor (Bos taurus, UniProt P30546); assay: Histamine H1 competitive binding assay ([3H]pyrilamine); design: species or system bovine
# T3 construct: the receptors were obtained from bovine cerebellar membrane tissue; from tissue; host or cells: bovine cerebellar membranes
# T3 sequence (P30546 whole entry): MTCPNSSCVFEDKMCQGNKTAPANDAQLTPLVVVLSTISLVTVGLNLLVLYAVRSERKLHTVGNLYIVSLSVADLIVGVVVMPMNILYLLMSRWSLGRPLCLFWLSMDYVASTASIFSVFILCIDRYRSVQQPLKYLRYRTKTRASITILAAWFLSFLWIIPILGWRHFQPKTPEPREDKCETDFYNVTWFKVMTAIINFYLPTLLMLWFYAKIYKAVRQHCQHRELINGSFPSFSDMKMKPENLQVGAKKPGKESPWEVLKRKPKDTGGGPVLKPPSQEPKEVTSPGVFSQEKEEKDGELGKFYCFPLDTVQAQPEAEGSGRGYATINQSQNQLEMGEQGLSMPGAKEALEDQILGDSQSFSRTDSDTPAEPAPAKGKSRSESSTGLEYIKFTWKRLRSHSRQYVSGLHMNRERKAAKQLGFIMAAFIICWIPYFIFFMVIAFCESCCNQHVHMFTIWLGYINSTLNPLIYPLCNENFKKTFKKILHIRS
# [2] = Plasma pharmacokinetics in dogs; assay type: in vivo; details: dog, 3 mg/kg
# From the text: The following pharmacokinetic parameters are computed from the individual plasma concentrations of the modified antihistamine compound using a noncompartmental approach and appropriate validated pharmacokinetic software (e.g., WinNonlin Professional). Concentration values reported as BLQ are set to zero. If concentration data are available, interim calculations are done (non-QC.d data) between periods if possible.
# Dose proportionality following study medication is explored by analyzing natural log-transformed pharmacokinetic variables AUC(0-t), AUC(0-inf), and Cmax with a linear model including the natural log-transformed dose as covariates. […] The following parameters were estimated: • Cmax Maximum plasma concentration. • Tmax Time to maximum concentration. • Cmax and Tmax were reported directly from the concentration-time data. • AUC0-T Area under the plasma concentration-time curve from time […] to the last time point with measurable concentrations, estimated bylinear trapezoidal rule. • AUC0-00 Area under the plasma concentration-time curve extrapolated to infinity, calculated using the formula: AUC0-00=AUC0-1+C0/λ0 • Where Ct is the last measurable concentration in plasma and λz is the terminal phase elimination rate constant estimated using log-linear regression during the terminal elimination phase. […]
# [3] = 1 h, read-out: percentage inhibition of specific binding
# Sequence of M3 muscarinic receptor (P20309 whole entry): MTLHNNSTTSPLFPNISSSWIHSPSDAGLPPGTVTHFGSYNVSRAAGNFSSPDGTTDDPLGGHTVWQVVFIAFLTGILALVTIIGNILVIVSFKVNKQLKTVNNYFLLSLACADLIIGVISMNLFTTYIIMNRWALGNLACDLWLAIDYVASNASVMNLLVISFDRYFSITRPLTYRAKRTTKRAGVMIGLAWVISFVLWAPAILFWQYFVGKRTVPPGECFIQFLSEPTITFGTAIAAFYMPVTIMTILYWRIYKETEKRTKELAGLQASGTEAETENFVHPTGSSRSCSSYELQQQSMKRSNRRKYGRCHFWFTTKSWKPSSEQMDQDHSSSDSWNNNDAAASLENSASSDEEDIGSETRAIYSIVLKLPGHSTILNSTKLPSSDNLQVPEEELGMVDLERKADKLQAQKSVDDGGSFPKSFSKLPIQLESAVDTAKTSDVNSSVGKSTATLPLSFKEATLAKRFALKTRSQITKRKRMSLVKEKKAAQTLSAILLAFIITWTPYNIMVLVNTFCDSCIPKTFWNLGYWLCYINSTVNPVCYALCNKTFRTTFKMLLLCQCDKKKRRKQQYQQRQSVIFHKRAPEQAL
smiles,measurement,setting,value
CC(CC(=O)O)N1CCC(=C2c3ccc(F)cc3COc3ccccc32)CC1 (stereo not shown) [Compound 37],IC50,M3 muscarinic receptor; M3 receptor binding (Table 19),> 10 µM
same,Ki,"M3 muscarinic receptor; M3 receptor binding (Table 19), read-out: Ki",> 10 µM
same,percentage inhibition of specific binding,Estrogen,−4.68%
same,REM inhibition,adult male Wistar rats; 10 mg/kg,did not produce any REM inhibition
same,body temperature,adult male Wistar rats; 10 mg/kg,no disproportional reduction
same,locomotor activity (LMA),adult male Wistar rats; 10 mg/kg,no disproportional reduction
same,rebound insomnia,adult male Wistar rats; 10 mg/kg,did not produce any REM inhibition or rebound insomnia
same,"Cumulative NREM sleep time increase, adjusted for baseline and relative to vehicle",adult male Wistar rats; 10 mg/kg PO at CT-18,53 min
same,absolute average sleep bout,adult male Wistar rats; 10 mg/kg PO at CT-18,9 min
same,absolute longest sleep bout post-treatment,adult male Wistar rats; 10 mg/kg PO at CT-18,18.3 min
same,"average sleep bout length increase, adjusted for baseline and relative to vehicle",adult male Wistar rats; 10 mg/kg PO at CT-18,5.3 min
same,"longest sleep bout (LUSB), adjusted for baseline and relative to vehicle",adult male Wistar rats; 10 mg/kg PO at CT-18,10.8 min
same,peak NREM sleep time,adult male Wistar rats; 10 mg/kg PO at CT-18,64 % per hour
same,body temperature,adult male Wistar rats; 30 mg/kg,drop in body temperature occurred only at this high dose
same,locomotor activity (LMA),adult male Wistar rats; 30 mg/kg,no disproportional reduction in LMA
same,rebound insomnia,adult male Wistar rats; 30 mg/kg,No rebound insomnia was observed
same,"Cumulative NREM sleep time increase, adjusted for baseline and relative to vehicle",adult male Wistar rats; 30 mg/kg PO at CT-18,62 min
same,absolute average sleep bout,adult male Wistar rats; 30 mg/kg PO at CT-18,9 min
same,absolute longest sleep bout post-treatment,adult male Wistar rats; 30 mg/kg PO at CT-18,25 min
same,"average sleep bout length increase, adjusted for baseline and relative to vehicle",adult male Wistar rats; 30 mg/kg PO at CT-18,5.6 min
same,"longest sleep bout (LUSB), adjusted for baseline and relative to vehicle",adult male Wistar rats; 30 mg/kg PO at CT-18,17.1 min
same,peak NREM sleep time,adult male Wistar rats; 30 mg/kg PO at CT-18,72 % per hour
same,REM inhibition,adult male Wistar rats; 30 mg/kg at CT-18,did not produce any appreciable REM inhibition
same,inhibition at 1 µM,Testosterone (cytosolic),0.24%
same,IC50,M1 muscarinic receptor,> 10 µM
same,Ki,M1 muscarinic receptor,> 10 µM
same,inhibition at 1 µM,M1 muscarinic receptor; [3],5.11%
same,inhibition at 1 µM,[1],-12.5%
same,IC50,M2 muscarinic receptor,> 10 µM
same,Ki,M2 muscarinic receptor,> 10 µM
same,inhibition at 1 µM,M2 muscarinic receptor; [3],14.6%
same,inhibition at 1 µM,Dopamine Transporter,2.14%
same,IC50,H1 histamine receptor,0.0675 µM
same,Ki,H1 histamine receptor,0.0258 µM
same,inhibition at 1 µM,H1 histamine receptor; [3],93.1%
same,Slope,H1 histamine receptor; H1 binding curve (Table 13),−0.99
CC(C)(CN1CCC(=C2c3ccc(F)cc3COc3ccccc32)CC1)C(=O)O [Compound 49a],Ki,M3 muscarinic receptor; read-out: Ki M3,> 10 µM
same,LUSB,adult male Wistar rats; dose 0.3 mg/kg oral at CT-18,2.8 min
same,NREM,adult male Wistar rats; dose 0.3 mg/kg oral at CT-18,-6.6 min
same,LUSB,adult male Wistar rats; dose 1 mg/kg oral at CT-18,4.3 min
same,NREM,adult male Wistar rats; dose 1 mg/kg oral at CT-18,18.8 min
same,LUSB,adult male Wistar rats; dose 3 mg/kg oral at CT-18,11.6 min
same,NREM,adult male Wistar rats; dose 3 mg/kg oral at CT-18,37.2 min
same,LUSB,adult male Wistar rats; dose 10 mg/kg oral at CT-18,14.1 min
same,NREM,adult male Wistar rats; dose 10 mg/kg oral at CT-18,45.3 min
same,LUSB,adult male Wistar rats; dose 30 mg/kg oral at CT-18,12.9 min
same,NREM,adult male Wistar rats; dose 30 mg/kg oral at CT-18,49.1 min
same,Ki,M1 muscarinic receptor; read-out: Ki M1,> 10 µM
same,Ki,M2 muscarinic receptor; read-out: Ki M2,> 10 µM
same,Ki,H1 histamine receptor; read-out: Ki H1,0.0695 µM
same,half-life,[2],4.2 h
same,Tmax,[2]; after oral administration,0.5 h
